Measured values published in patent EP0384421A2, “Use of PAF antagonists in the treatment of pathologic changes of the blood gas” (BOEHRINGER INGELHEIM KG, priority 1989, dated 1990).
Where “and” joins values, the source holds several entries; their conditions need not be identical. Equal entries are not always repeated.

Experiments:
Methylparathion = tested on: Methylparathion; design: species or system Ratten; conditions: in vivo
Text: Die Bestimmung der Partialdrucke der nachfolgend aufgeführten Blutgase sowie die Bestimmung des pH-Wertes des Blutes sind ein Indiz dafür, daß eine Behandlungsmethode bei Organophosphorvergiftungen positiv anspricht.
In der Tabelle I sind der pH-Wert und die Partialdrucke von CO₂ und O₂ aufgeführt. Die Ergebnisse sind Mittelwerte die aus Versuchen an 6 bis 15 Ratten je Experiment erhalten wurden. […] Die Konzentration von Atropin und Web 2086 ist in der Tabelle angegeben und bezieht sich auf mg/kg i.v. Die Reihenfolge der Applikation ist in Spalte 1 der Tabelle angegeben. Die Blutentnahme erfolgt 5 Minuten nach der letzten Substanzgabe. Die Blutgas-Messung erfolgte mit einem "Corning-Blood-Gas-Analyser 178".

PAF = test: Acid-base balance and blood gases in arterial blood of rats after PAF and a PAF antagonist; type: in vivo, Ratten; conditions: for BE / HCO3 / O2sat / TCO2 / pCO2 / pO2 / ph: PAF 10 µg/kg i.v., rats; for pH-Wert-Erniedrigung: pH decrease caused by PAF 10 µg/kg i.v.
[1] = PAF antagonist 1000 ug/kg i.v., arterial blood
[2] = PAF antagonist 100 ug/kg i.v., arterial blood

For CN1C2CCC1CC(OC(=O)C(CO)c1ccccc1)C2 (racemic) [Atropin, reference compound], the pH (Methylparathion) was 7,43 and 7,21 and 6,97.

For Cc1nnc2n1-c1sc(Br)cc1C(c1ccccc1Cl)=NC2 [Brotizolam, reference compound], the BE (PAF; 10 mg/kg p.o.) was -18,95, the HCO3 (PAF; 10 mg/kg p.o.) was 7,88 and the O2sat (PAF; 10 mg/kg p.o.) was 95,48. For the same compound, the TCO2 (PAF; 10 mg/kg p.o.) was 8,57, the pCO2 (PAF; 10 mg/kg p.o.) was 22,22 and the pO2 (PAF; 10 mg/kg p.o.) was 104,47. The ph (PAF; 10 mg/kg p.o.) was 7,17, the BE (PAF; 30 mg/kg p.o.) was -3,32 and the HCO3 (PAF; 30 mg/kg p.o.) was 20,97. The O2sat (PAF; 30 mg/kg p.o.) was 94,43, the TCO2 (PAF; 30 mg/kg p.o.) was 22,05 and the pCO2 (PAF; 30 mg/kg p.o.) was 35,53. For the same compound, the pO2 (PAF; 30 mg/kg p.o.) was 87,42, the ph (PAF; 30 mg/kg p.o.) was 7,37 and the BE (PAF; 100 mg/kg p.o.) was -7,94. For the same compound, the HCO3 (PAF; 100 mg/kg p.o.) was 16,38, the O2sat (PAF; 100 mg/kg p.o.) was 95,18 and the TCO2 (PAF; 100 mg/kg p.o.) was 17,34. For the same compound, the pCO2 (PAF; 100 mg/kg p.o.) was 30,60, the pO2 (PAF; 100 mg/kg p.o.) was 87,92 and the ph (PAF; 100 mg/kg p.o.) was 7,33. For the same compound, the “Blutgas-stabilisierende Wirkung” value (PAF; 10,30 und 100 mg/kg p.o., same experimental set-up) was “dosisabhängig”, the “durch PAF-verursachte pH Wert-Verminderung” value (PAF; 30 und 100 mg/kg) was “verhindert” and the “Abnahme des CO₂-Partialdruckes und Abnahme des Basenüberschusses” value (PAF; 30 und 100 mg/kg, PAF-induced) was “verhindert”.

For Cc1nnc2n1-c1sc3c(c1C(c1ccccc1Cl)=NC2)CC(CN1CCOCC1)C3 (centres unmarked) [STY 2108], the BE (PAF; [1]) was 0.42, the HCO3 (PAF; [1]) was 24.5 and the O2sat (PAF; [1]) was 96.8. For the same compound, the TCO2 (PAF; [1]) was 25.8, the pCO2 (PAF; [1]) was 39.5 and the pO2 (PAF; [1]) was 90.4. The ph (PAF; [1]) was 7.40 and the pH-Wert-Erniedrigung (PAF) was “verhindert”.

With Cc1nnc2n1-c1sc(CCC(=O)N3CCOCC3)cc1C(c1ccccc1Cl)=NC2 [WEB 2086, 4-(2-Chlorphenyl)-9-methyl-2-[3-(4-morpholinyl)-3-propanon-1-yl]-6H-thieno[3,2-f][1,2,4]triazolo[4,3-a][1,4]diazepin] the “Blutgaswerte bei Phosphorsäureestervergiftungen” value (Methylparathion) was “positiv beeinflußt”, the PCO2 (Methylparathion) was 73,0 and 58,9 and the PO2 (Methylparathion) was 51,7 and 61,9. For the same compound, the pH (Methylparathion) was 7,25 and 7,07, the BE (PAF; [1]) was -5.40 and the HCO3 (PAF; [1]) was 19.8. For the same compound, the O2sat (PAF; [1]) was 91.5, the TCO2 (PAF; [1]) was 20.9 and the pCO2 (PAF; [1]) was 38.2. The pO2 (PAF; [1]) was 72.8, the ph (PAF; [1]) was 7.32 and the pH-Wert-Erniedrigung (PAF) was “verhindert”.

Cc1nnc2n1-c1sc3c(c1C(c1ccccc1Cl)=NC2)CC(C(=O)N1CCOCC1)C3 (centres unmarked) [WEB 2170, 6-(2-Chlorphenyl)-8,9-dihydro-1-methyl-8-[(4-morpholinyl)carbonyl]-4H,7H-cyclopenta[4,5]thieno[3,2-f][1,2,4]triazolo[4,3-a][1,4]diazepin] gave a BE (PAF; [2]) of 0.18, an HCO3 (PAF; [2]) of 22.9 and an O2sat (PAF; [2]) of 97.1. The TCO2 (PAF; [2]) was 23.9, the pCO2 (PAF; [2]) was 33.8 and the pO2 (PAF; [2]) was 89.8. The ph (PAF; [2]) was 7.44 and the pH-Wert-Erniedrigung (PAF) was “verhindert”.
